Like-named read-outs stand apart in the source and are kept apart here.
Biological target: T1, rNav1.2 sodium channels (Rattus norvegicus, UniProt P04775)
T1 construct: host or cells: HEK-293
Assay: QPatch automated patch clamp, inhibition of sodium currents evoked by 5 Hz trains at three extracellular pH values
Format: cell-based
Conditions: for class of pH-dependence pattern (cluster analysis): Ward's method on 18 variables of affinity, reversibility, onset; for τoffset / τonset: concentration (lidocaine 300 μM, memantine 30 μM)
Description: HEK-293 cells stably expressing rNav1.2 sodium channels were obtained from NeuroSearch (Ballerup, Denmark). The cells were grown in Dulbecco's modified Eagle medium supplemented with 10% FBS. Prior to use, the cells were trypsinized and subsequently kept in suspension in the QPatch cell storage facility in CHO-S- SFM-II medium.
Composition of the extracellular solution was: (in mM): 140 NaCl, 3 KCl, 1 CaCl2 1 MgCl2, 0.1 CdCl2, 20 TEA-Cl, 5 HEPES, adjusted to pH 7.3, Osmolality: 320 mOsm. […] Drugs were synthesized in Gedeon Richter Plc. […] The full list of drugs, with their three-letter codes, concentration, as well as their main therapeutic indication and main mechanism of action are shown in Table 1. […] The choice of concentrations used in this study may seem unusually high.
Data were sampled at a frequency of 25 kHz and filtered at 5 kHz. Junction potential was calculated to be −11 mV and was corrected for. […] Cells having membrane resistance < 500 MOhm, series resistance > 9 MOhm, or capacitance > 22 pF were excluded from analysis. The experimental protocol was also identical to the one used in our previous study: sodium channels were activated by 5 Hz trains of 5 depolarizations (−90 to −10 mV) repeated in every 20 s. In this study, however, the same control–drug-application–washout sequence was repeated four times: at neutral, acidic, alkalic, and again neutral pH. The peak amplitudes of sodium currents throughout the whole experiment are shown plotted against time in Figure 1 and Supplementary Figure 1.
Initial analysis, including subtraction of leak and capacitive artifacts, as well as peak detection were done in the QPatch software. […] All experiments were normalized to the amplitude of the current evoked by the first depolarization of the last train under control conditions. […] For all four drug applications in an experiment, apparent affinity, onset and offset time constants as well as reversibility values were calculated. […] (This method is equivalent to applying the Lineweaver-Burk plot method using a single concentration.) Reversibility values were calculated from control (c), inhibited (i), and wash-out (w) amplitudes as follows: Reversibility = (w-i)/(c-i). Reversibility values should not be regarded as experimental platform-independent properties of compounds. […] However, reversibility values are a valuable source of information regarding physicochemical differences between individual drugs, or between effects of the same drug under different extracellular pH conditions. Onset and offset time constants were determined by single exponential fitting to individual experiments. For neutral pH numerical data were given as the average of the data from the first and the last drug applications. Thin black lines on Figure 1 and Supplemental Figure 1 show the average of five fitted exponentials, (not the exponential fitted to the averaged normalized amplitudes). The numerical values of apparent affinity, onset and offset time constants and reversibility are shown in Table 2, and their relative position is illustrated in Figure 2. Affinity and time constant values were logarithmically transformed for statistics, therefore we show their geometric mean. For recovery data no transformation was done, and we show arithmetic mean values. Significance values were calculated using paired, two-tailed Student's t-test based on five pairs of apparent affinity (log transform), time constant (log transform), or reversibility values obtained from five individual experiments. Because of the large number of comparisons in this study, we accepted p < 0.01 as significant. Cluster analysis was done using Ward's minimum variance method, with Euclidean distance measure. Data were normalized by subtracting the mean (after logarithmic transformation in the case of apparent affinity and time constants), and dividing by the standard deviation.

[1] = pH 6.0, single concentration (lidocaine 300 μM, memantine 30 μM), geometric mean of 5, read-out: apparent affinity
[2] = pH 7.3, single concentration (lidocaine 300 μM, memantine 30 μM), geometric mean of 5, read-out: apparent affinity
[3] = pH 8.6, single concentration (lidocaine 300 μM, memantine 30 μM), geometric mean of 5, read-out: apparent affinity
[4] = pH=6.0, cc 100 mM, read-out: Apparent Affinity
[5] = pH=7.3, cc 100 mM, read-out: Apparent Affinity
[6] = pH=8.6, cc 100 mM, read-out: Apparent Affinity

T1 sequence (P04775 whole entry): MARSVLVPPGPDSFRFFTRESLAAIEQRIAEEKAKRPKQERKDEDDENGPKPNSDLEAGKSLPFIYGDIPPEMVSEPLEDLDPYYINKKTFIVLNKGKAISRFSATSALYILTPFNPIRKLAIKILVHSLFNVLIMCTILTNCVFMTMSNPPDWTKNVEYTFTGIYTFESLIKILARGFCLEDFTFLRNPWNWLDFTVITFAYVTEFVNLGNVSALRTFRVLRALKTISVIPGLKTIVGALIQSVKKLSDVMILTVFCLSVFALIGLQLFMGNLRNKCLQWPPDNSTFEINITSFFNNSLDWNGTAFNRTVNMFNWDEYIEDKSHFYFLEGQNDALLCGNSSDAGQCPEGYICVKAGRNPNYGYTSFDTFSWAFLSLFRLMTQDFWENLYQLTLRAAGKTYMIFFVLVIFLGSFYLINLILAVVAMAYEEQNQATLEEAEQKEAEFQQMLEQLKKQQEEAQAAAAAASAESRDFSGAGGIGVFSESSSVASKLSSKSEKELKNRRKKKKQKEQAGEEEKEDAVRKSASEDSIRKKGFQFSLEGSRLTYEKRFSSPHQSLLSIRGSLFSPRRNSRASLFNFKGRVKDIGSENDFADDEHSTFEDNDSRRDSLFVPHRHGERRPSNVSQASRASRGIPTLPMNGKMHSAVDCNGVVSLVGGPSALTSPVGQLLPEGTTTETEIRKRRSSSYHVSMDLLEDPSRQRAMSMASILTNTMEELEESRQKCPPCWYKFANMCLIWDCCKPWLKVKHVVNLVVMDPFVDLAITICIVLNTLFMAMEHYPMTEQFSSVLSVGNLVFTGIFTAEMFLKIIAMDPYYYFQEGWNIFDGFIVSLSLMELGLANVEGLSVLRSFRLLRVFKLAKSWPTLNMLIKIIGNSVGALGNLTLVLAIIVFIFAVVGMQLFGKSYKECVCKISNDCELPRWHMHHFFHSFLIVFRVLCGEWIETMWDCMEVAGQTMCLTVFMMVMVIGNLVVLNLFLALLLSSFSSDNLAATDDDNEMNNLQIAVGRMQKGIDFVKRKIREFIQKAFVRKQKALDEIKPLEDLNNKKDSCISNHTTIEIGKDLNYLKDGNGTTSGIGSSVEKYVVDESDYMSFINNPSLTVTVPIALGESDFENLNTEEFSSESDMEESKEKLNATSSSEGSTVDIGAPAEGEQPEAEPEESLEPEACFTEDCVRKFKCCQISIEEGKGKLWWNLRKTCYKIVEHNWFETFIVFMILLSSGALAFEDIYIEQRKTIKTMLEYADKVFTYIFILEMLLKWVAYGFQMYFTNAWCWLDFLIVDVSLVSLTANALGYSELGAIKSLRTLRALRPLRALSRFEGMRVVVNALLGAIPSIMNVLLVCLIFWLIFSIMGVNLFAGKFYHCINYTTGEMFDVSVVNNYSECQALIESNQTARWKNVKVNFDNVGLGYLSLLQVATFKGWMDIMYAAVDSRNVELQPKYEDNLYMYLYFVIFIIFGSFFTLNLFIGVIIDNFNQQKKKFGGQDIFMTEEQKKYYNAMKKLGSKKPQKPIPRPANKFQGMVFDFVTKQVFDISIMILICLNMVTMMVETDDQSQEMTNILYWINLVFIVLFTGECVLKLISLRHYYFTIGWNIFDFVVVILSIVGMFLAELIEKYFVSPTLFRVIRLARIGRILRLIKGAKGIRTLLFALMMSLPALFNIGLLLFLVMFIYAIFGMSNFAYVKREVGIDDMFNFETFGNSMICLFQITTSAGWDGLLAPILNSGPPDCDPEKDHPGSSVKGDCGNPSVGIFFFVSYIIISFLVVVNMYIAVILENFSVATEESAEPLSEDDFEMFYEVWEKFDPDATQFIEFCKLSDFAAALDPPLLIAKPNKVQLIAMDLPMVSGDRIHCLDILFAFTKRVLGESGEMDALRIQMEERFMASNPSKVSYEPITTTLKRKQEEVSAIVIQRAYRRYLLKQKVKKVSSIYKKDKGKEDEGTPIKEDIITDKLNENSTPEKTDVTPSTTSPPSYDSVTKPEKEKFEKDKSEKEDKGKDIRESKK

Row | SMILES | class of pH-dependence pattern (cluster analysis) | Ratio Reversibility (pH 6.0/7.3, cc 100 mM) | Ratio Tau Offset (pH 6.0/7.3, cc 100 mM) | Ratio Tau Onset (pH 6.0/7.3, cc 100 mM) | log Ratio App Aff (pH 6.0/7.3, cc 100 mM) | Ratio Reversibility (pH 6.0/8.6, cc 100 mM) | Ratio Tau Offset (pH 6.0/8.6, cc 100 mM) | Ratio Tau Onset (pH 6.0/8.6, cc 100 mM) | log Ratio App Aff (pH 6.0/8.6, cc 100 mM) | τoffset (pH 6.0) | τonset (pH 6.0) | Kd [1] | Ratio Reversibility (pH 7.3/8.6, cc 100 mM) | Ratio Tau Offset (pH 7.3/8.6, cc 100 mM) | τoffset (pH 7.3) | τonset (pH 7.3) | Kd [2] | τoffset (pH 8.6) | τonset (pH 8.6) | Kd [3] | also measured
1 | Nc1c(Br)cc(Br)cc1CN[C@H]1CC[C@H](O)CC1 [ambroxol] | Class G | 0.839 | 0.759 | 0.884 | 0.190 | 1.137 | 0.708 | 0.667 | 0.494 | 8.50 s | 7.60 s | 138 µM | 1.355 | 0.933 | 11.20 s | 8.60 s | 88.7 µM | 12.00 s | 11.40 s | 44.2 µM | Ratio Tau Onset (pH 7.3/8.6, cc 100 mM): 0.754; log Ratio App Aff (pH 7.3/8.6, cc 100 mM): 0.303; Reversibility (pH=6.0, cc 100 mM): 0.65; Kd [4]: 138 µM; Reversibility (pH=7.3, cc 100 mM): 0.78; Kd [5]: 88.7 µM; Reversibility (pH=8.6, cc 100 mM): 0.58; Kd [6]: 44.2 µM
2 | CN(C)CCC=C1c2ccccc2CCc2ccccc21 [amitriptyline] | Class C | – | – | – | – | – | – | – | – | 23.45 s | 16.40 s | 40.7 µM | – | – | 19.66 s | 15.10 s | 25.6 µM | 28.00 s | 14.70 s | 13.8 µM | Ratio Reversibility (pH 6.0/7.3, cc 30 mM): 1.364; Ratio Tau Offset (pH 6.0/7.3, cc 30 mM): 1.193; Ratio Tau Onset (pH 6.0/7.3, cc 30 mM): 1.086; log Ratio App Aff (pH 6.0/7.3, cc 30 mM): 0.202; Ratio Reversibility (pH 6.0/8.6, cc 30 mM): 5.190; Ratio Tau Offset (pH 6.0/8.6, cc 30 mM): 0.838; Ratio Tau Onset (pH 6.0/8.6, cc 30 mM): 1.116; log Ratio App Aff (pH 6.0/8.6, cc 30 mM): 0.469; Ratio Reversibility (pH 7.3/8.6, cc 30 mM): 3.806; Ratio Tau Offset (pH 7.3/8.6, cc 30 mM): 0.702; Ratio Tau Onset (pH 7.3/8.6, cc 30 mM): 1.027; log Ratio App Aff (pH 7.3/8.6, cc 30 mM): 0.267; Reversibility (pH=6.0, cc 30 mM): 0.74; Kd (pH=6.0, cc 30 mM, read-out: Apparent Affinity): 40.7 µM; Reversibility (pH=7.3, cc 30 mM): 0.55; Kd (pH=7.3, cc 30 mM, read-out: Apparent Affinity): 25.6 µM; Reversibility (pH=8.6, cc 30 mM): 0.14; Kd (pH=8.6, cc 30 mM, read-out: Apparent Affinity): 13.8 µM
3 | CCCCN1CCCCC1C(=O)Nc1c(C)cccc1C (stereo not shown) [bupivacaine] | Class B | 0.906 | 2.692 | 4.180 | 0.218 | 1.346 | 4.516 | 4.322 | 0.412 | 56.00 s | 51.00 s | 106 µM | 1.485 | 1.677 | 20.80 s | 12.20 s | 64.2 µM | 12.40 s | 11.80 s | 41 µM | effect of alkalic pH on onset/offset kinetics (in words): significant acceleration of both onset and offset; Ratio Tau Onset (pH 7.3/8.6, cc 100 mM): 1.034; log Ratio App Aff (pH 7.3/8.6, cc 100 mM): 0.194; Reversibility (pH=6.0, cc 100 mM): 0.64; Kd [4]: 106 µM; Reversibility (pH=7.3, cc 100 mM): 0.71; Kd [5]: 64.2 µM; Reversibility (pH=8.6, cc 100 mM): 0.48; Kd [6]: 41 µM

Reference: publication PMC4585259 (Frontiers in Pharmacology, 2015)
